PubChem BioAssay (NCI)
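Each compound was tested at five concentrations against cells in 96-well plates for 48 hours. TGI denotes the concentration required for complete inhibition of growth.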

Key:
Experiment in all cases: DTP human tumour cell line panel, 48 h
HCT-15 colon = tested on: HCT-15 colon
SN12C renal = tested on: SN12C renal
SNB-75 CNS = tested on: SNB-75 CNS
T-47D breast = tested on: T-47D breast
UACC-62 melanoma = tested on: UACC-62 melanoma
OVCAR-5 ovarian = tested on: OVCAR-5 ovarian
DU-145 prostate = tested on: DU-145 prostate
MDA-N = tested on: MDA-N
RPMI-8226 leukemia = tested on: RPMI-8226 leukemia
NCI-H460 lung = tested on: NCI-H460 lung
MOLT-4 leukemia = tested on: MOLT-4 leukemia
NCI-H23 lung = tested on: NCI-H23 lung
UACC-257 melanoma = tested on: UACC-257 melanoma
LOX IMVI melanoma = tested on: LOX IMVI melanoma
HOP-62 NSCLC = tested on: HOP-62 NSCLC
SF-295 CNS = tested on: SF-295 CNS
SK-MEL-2 melanoma = tested on: SK-MEL-2 melanoma
SK-OV-3 ovarian = tested on: SK-OV-3 ovarian
MDA-MB-435 = tested on: MDA-MB-435
HT29 colon = tested on: HT29 colon
SF-268 CNS = tested on: SF-268 CNS
NCI/ADR-RES ovarian = tested on: NCI/ADR-RES ovarian
EKVX NSCLC = tested on: EKVX NSCLC
CCRF-CEM leukemia = tested on: CCRF-CEM leukemia
PC-3 prostate = tested on: PC-3 prostate
COLO 205 colon = tested on: COLO 205 colon
BT-549 breast = tested on: BT-549 breast
HL-60(TB) leukemia = tested on: HL-60(TB) leukemia
SK-MEL-28 melanoma = tested on: SK-MEL-28 melanoma
NCI-H522 lung = tested on: NCI-H522 lung
786-0 renal = tested on: 786-0 renal
NCI-H226 lung = tested on: NCI-H226 lung
IGROV1 ovarian = tested on: IGROV1 ovarian
HOP-92 NSCLC = tested on: HOP-92 NSCLC
ACHN renal = tested on: ACHN renal
CAKI-1 renal = tested on: CAKI-1 renal
K-562 leukemia = tested on: K-562 leukemia
OVCAR-8 ovarian = tested on: OVCAR-8 ovarian
OVCAR-3 ovarian = tested on: OVCAR-3 ovarian
TK-10 renal = tested on: TK-10 renal
SW-620 colon = tested on: SW-620 colon
A549 NSCLC = tested on: A549 NSCLC
KM12 colon = tested on: KM12 colon
M14 melanoma = tested on: M14 melanoma
MALME-3M melanoma = tested on: MALME-3M melanoma
SK-MEL-5 melanoma = tested on: SK-MEL-5 melanoma
MCF7 breast = tested on: MCF7 breast
HCT-116 colon = tested on: HCT-116 colon
UO-31 renal = tested on: UO-31 renal
OVCAR-4 ovarian = tested on: OVCAR-4 ovarian
HS 578T breast = tested on: HS 578T breast
SR leukemia = tested on: SR leukemia
U251 CNS = tested on: U251 CNS
SNB-19 CNS = tested on: SNB-19 CNS
A498 renal = tested on: A498 renal
SF-539 CNS = tested on: SF-539 CNS
RXF 393 renal = tested on: RXF 393 renal
MDA-MB-231 breast = tested on: MDA-MB-231 breast
HCC-2998 colon = tested on: HCC-2998 colon

Measured: TGI

CCCCS(=O)CCC(N)P(=O)(O)O (stereo unspecified)
not listed: A498 renal | SF-539 CNS | RXF 393 renal | MDA-MB-231 breast | HCC-2998 colon
> 100 µM: all other assays above

COc1ccc(N2C(=O)C(=O)N(c3ccccc3[N+](=O)[O-])C2=S)cc1
65.7 µM: TK-10 renal
53.5 µM: NCI-H23 lung
74.2 µM: MDA-N
32.4 µM: LOX IMVI melanoma
44.4 µM: COLO 205 colon
86.1 µM: SK-OV-3 ovarian
64.2 µM: NCI/ADR-RES ovarian
57.4 µM: HOP-92 NSCLC
58.5 µM: OVCAR-4 ovarian
88.2 µM: MDA-MB-435
84 µM: HS 578T breast
74.4 µM: T-47D breast
88.3 µM: SF-539 CNS
71.9 µM: KM12 colon
46 µM: SK-MEL-2 melanoma
40.5 µM: HCT-15 colon
44.9 µM: OVCAR-8 ovarian
52.8 µM: RXF 393 renal
63.4 µM: OVCAR-5 ovarian
32.5 µM: UACC-62 melanoma | SK-MEL-5 melanoma
47.3 µM: UACC-257 melanoma
94.2 µM: RPMI-8226 leukemia
24.4 µM: NCI-H522 lung
77.5 µM: A498 renal
74.8 µM: ACHN renal
not listed: BT-549 breast | OVCAR-3 ovarian | M14 melanoma | MCF7 breast
> 100 µM: all other assays above

COc1cc(C(=O)n2c3ccc(Br)cc3c3nc4ccccc4nc32)cc(OC)c1OC
66.4 µM: RXF 393 renal
not listed: SK-OV-3 ovarian | A549 NSCLC | HS 578T breast | A498 renal
> 100 µM: all other assays above

CC(=O)Nc1ccc(N2C(=O)/C(=C\c3cccc(Oc4ccccc4)c3)S(=O)(=O)C2c2ccccc2)cc1 (stereo unspecified)
56.6 µM: HL-60(TB) leukemia
62.5 µM: SF-539 CNS
66.8 µM: RPMI-8226 leukemia
98.4 µM: MOLT-4 leukemia
95.3 µM: MDA-N
not listed: SF-268 CNS | HS 578T breast
> 100 µM: all other assays above
